What was measured:
[1] = system: HTB-54 (lung) cancer cell line; set-up: method as in PMID 22397496; settings: cited from earlier work
[2] = system: HTB-54 (lung) cancer cell line; assay: MTT cell viability assay, HTB-54; assay type: cell-based, human; settings: for activity at 10 µM / activity at 50 µM: Homo sapiens, HTB-54, 48 h; for activity at 10 µM: read-out: Cell growth %, HTB-54, 10 µM, 48 h, MTT; for activity at 50 µM: read-out: Cell growth %, HTB-54, 50 µM, 48 h, MTT
[3] = system: non-malignant BEAS-2B lung cell line; set-up: method as in doi:10.30918/IRJMMS.72.19.022; settings: cited from earlier work
[4] = system: DU-145 (prostate) cancer cell line; assay: MTT cell viability assay, DU-145; assay type: cell-based, human; settings: for activity at 10 µM / activity at 50 µM: Homo sapiens, DU-145, 48 h; for activity at 10 µM: read-out: Cell growth %, DU-145, 10 µM, 48 h, MTT; for activity at 50 µM: read-out: Cell growth %, DU-145, 50 µM, 48 h, MTT
Procedure, shortened: (§1)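 MDA-MB-231, HTB-54 and DU-145 grown in RPMI 1640, HT-29 in McCoy's 5A (10% FBS). Output is % cell growth; IC50 determined; ≥3 experiments in quadruplicate.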

[5] = system: MDA-MB-231 (breast) cancer cell line; assay: MTT cell viability assay, MDA-MB-231; assay type: cell-based, human; settings: for activity at 10 µM / activity at 50 µM: Homo sapiens, MDA-MB-231, 48 h; for activity at 10 µM: read-out: Cell growth %, MDA-MB-231, 10 µM, 48 h, MTT; for activity at 50 µM: read-out: Cell growth %, MDA-MB-231, 50 µM, 48 h, MTT
Procedure, shortened: as §1

[6] = system: MDA-MB-231, HT-29, HTB-54 and DU-145 cancer cell lines; assay: MTT cell viability assay, statements over the panel of cancer cell lines; assay type: cell-based, human; settings: 10 µM, over the four cancer cell lines
Method: Cell lines were purchased from the American Type Culture Collection (ATCC). Cell lines MDA-MB-231, HTB-54, DU-145, and BEAS-2B were cultured in RPMI 1640 medium (Gibco, Thermo Fisher Scientific, Gaithersburg, MD, USA) supplemented with 10% fetal bovine serum (FBS; Gibco), 100 units/mL penicillin, and […] streptomycin (Gibco). HT-29 cell line was grown in McCoy’s 5A (Gibco), 10% FBS, 100 units/mL penicillin, and 100 μg/mL streptomycin. Cells were maintained at 37 °C and 5% CO2. The culture medium was changed every three days.
The cell viability of each compound was measured by MTT colorimetric assay. Each compound was dissolved in DMSO at a concentration of 0.01 M. Each compound was tested at two different concentrations (10 and 50 µM) in MDA-MB-231 (breast), HTB-54 (lung), DU-145 (prostate), and HT-29 (colon) human cancer cell lines. Serial dilutions were prepared with supplemented culture medium. […] IC50 and selectivity indexes (SI) were determined.
Briefly, 1 × 10^4 tumor cells per well were grown in 96-well plates for 24 h. Then, these cells were incubated for 48 h with either DMSO (control) or a different concentration of each of the tested compounds. The cell viability was determined by adding 20 μL of MTT two hours and a half before the termination point. After this time, the culture medium was removed. The resulting formazan crystals were dissolved in 50 μL of DMSO, and the absorbance was measured at 570 nm. Results are expressed as % cell growth. The data were obtained from at least three independent experiments performed in quadruplicate.

[7] = DPPH radical scavenging assay; assay type: biochemical
Procedure, shortened: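 Acylselenoureas at 0.003 and 0.03 mg/mL (final dilutions from DMSO stock, via methanol) mixed with DPPH• prepared at 0.04 mg/mL in methanol. Absorbance decrease at 517 nm followed 0–120 min; % scavenging calculated relative to negative control, triplicates.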

[8] = system: HT-29 (colon) cancer cell line; assay: MTT cell viability assay, HT-29; assay type: cell-based; settings: Homo sapiens, HT-29, 48 h, read-out: Cell growth %; for activity at 10 µM: HT-29, 10 µM; for activity at 50 µM: HT-29, 50 µM
Procedure, shortened: as §1

Row | Structure (SMILES) | melting point [°C] | activity at 10 µM [2] [%] | activity at 50 µM [2] [%] | activity at 10 µM [4] [%] | activity at 50 µM [4] [%] | inhibition ([7]; 0.003 mg/mL, 0 min) [%] | inhibition ([7]; 0.003 mg/mL, 5 min) [%] | inhibition ([7]; 0.003 mg/mL, 15 min) [%] | inhibition ([7]; 0.003 mg/mL, 30 min) [%] | inhibition ([7]; 0.003 mg/mL, 60 min) [%] | inhibition ([7]; 0.003 mg/mL, 90 min) [%] | inhibition ([7]; 0.003 mg/mL, 120 min) [%] | inhibition ([7]; 0.03 mg/mL, 0 min) [%] | inhibition ([7]; 0.03 mg/mL, 5 min) [%] | inhibition ([7]; 0.03 mg/mL, 15 min) [%] | inhibition ([7]; 0.03 mg/mL, 30 min) [%] | inhibition ([7]; 0.03 mg/mL, 60 min) [%] | inhibition ([7]; 0.03 mg/mL, 90 min) [%] | inhibition ([7]; 0.03 mg/mL, 120 min) [%] | activity at 50 µM [8] [%] | other results
1 | N.N.[Cl][Pt][Cl] [Cisplatin, reference compound] | – | – | – | – | – | – | – | – | – | – | – | – | – | – | – | – | – | – | – | – | IC50 [1]: 13.7 µM; SI ([2]; IC50 (BEAS-2B)/IC50 (HTB-54)): 0.63; IC50 [3]: 8.63 µM; IC50 ([4]; Prostate, MTT, 48 h, read-out: IC50 DU-145): 6.2 ± 0.1 µM; IC50 ([5]; Breast, MTT, 48 h, read-out: IC50 MDA-MB-231): 5.5 ± 0.5 µM
2 | C=CCNC(=[Se])NC(=O)/C=C/c1ccco1 [Compound 3.II, (E)-N-(allylcarbamoselenoyl)-3-(furan-2-yl)acrylamide] | 104 to 105 | 73.1 ± 3 | 35.4 ± 8.9 | 93.6 ± 14.7 | 10.4 ± 4.1 | 0 | 0 | 0 | 0.5 ± 2.9 | 1.7 ± 2.9 | 2.5 ± 2.9 | 3.3 ± 2.9 | 0.7 ± 2.7 | 5.2 ± 1.8 | 9 ± 1.6 | 14.3 ± 1.1 | 23.7 ± 0.8 | 31.7 ± 0.1 | 39.6 ± 0.1 | 33.2 ± 6.1 | cell growth % [6]: 54.8–95.0%; activity at 10 µM [8]: 63.3 ± 15%; activity at 10 µM [5]: 79.6 ± 7.7%; activity at 50 µM [5]: 14.1 ± 5.8%
3 | C#CCNC(=[Se])NC(=O)/C=C/c1ccco1 [Compound 3.III, (E)-3-(furan-2-yl)-N-(prop-2-in-1-ylcarbamoselenoyl)acrylamide] | 118 to 119 | 74.2 ± 4 | 35.3 ± 5.7 | 86.5 ± 9.3 | 24.7 ± 4.9 | 0.9 ± 1.9 | 1.2 ± 1.8 | 1.9 ± 1.7 | 2.7 ± 1.7 | 4.1 ± 1.7 | 5.3 ± 1.7 | 6.2 ± 1.6 | 2.6 ± 1.3 | 6.3 ± 1.1 | 10.9 ± 0.9 | 17.5 ± 0.4 | 28.4 ± 0.4 | 37.1 ± 0.3 | 45.9 ± 0.6 | 51.4 ± 6 | activity at 10 µM [5]: 66.8 ± 7.2%; activity at 50 µM [5]: 20.1 ± 8%
4 | C=CCNC(=[Se])NC(=O)/C=C/c1cccs1 [Compound 4.II, (E)-N-(allylcarbamoselenoyl)-3-(thiophen-2-yl)acrylamide] | 104 to 105 | 79.2 ± 9.2 | 44.2 ± 6.2 | 67.2 ± 7.1 | 13.8 ± 1.2 | 0 | 0 | 0 | 0.5 ± 2.5 | 1.7 ± 2.4 | 2.5 ± 2.4 | 3.1 ± 2.3 | 0.9 ± 2.8 | 6.1 ± 1.7 | 9.9 ± 1.5 | 15.5 ± 1.4 | 25.6 ± 1.3 | 35 ± 0.6 | 44.3 ± 0.6 | 32.9 ± 5 | activity at 10 µM [8]: 100 ± 7.1%; activity at 10 µM [5]: 81.1 ± 6.7%; activity at 50 µM [5]: 17.6 ± 6.6%
5 | CCCNC(=[Se])NC(=O)/C=C/c1ccccc1 [Compound 6.I, N-(propylcarbamoselenoyl)cinnamamide] | 125 to 126 | 84.6 ± 5.9 | 36.2 ± 5.7 | 19.5 ± 2 | 12.6 ± 1 | 1.5 ± 0.5 | 2 ± 0.8 | 2.5 ± 0.8 | 3.1 ± 0.6 | 4.4 ± 0.6 | 5.6 ± 0.7 | 6.6 ± 0.8 | 2.3 ± 1 | 10.1 ± 1.1 | 15.4 ± 1.3 | 21.8 ± 1.1 | 35.1 ± 1.2 | 50.2 ± 0.8 | 66.4 ± 0.2 | 25.1 ± 5 | activity at 10 µM [8]: 60.4 ± 9.7%; activity at 10 µM [5]: 88.4 ± 16.3%; activity at 50 µM [5]: 23.5 ± 12.9%
6 | C=CCNC(=[Se])NC(=O)/C=C/c1ccc2c(c1)OCO2 [Compound 9.II, (E)-N-(allylcarbamoselenoyl)-3-(benzo[d][1,3]dioxol-5-yl)acrylamide] | 187 to 188 | 82.8 ± 2.8 | 60 ± 4.5 | 110 ± 9 | 69.6 ± 6.1 | 0.1 ± 2.9 | 0.3 ± 2.7 | 0.8 ± 2.5 | 1.5 ± 2.4 | 2.3 ± 2.3 | 3 ± 2.3 | 3.5 ± 2.3 | 1.9 ± 1.9 | 6.1 ± 1.7 | 10.1 ± 1.2 | 14.7 ± 1.1 | 22.3 ± 1.2 | 29 ± 1.2 | 35.2 ± 1.3 | 103 ± 7.1 | cell growth % ([2]; HTB-54, 10 µM, 48 h, MTT): 82.8%; activity at 10 µM [8]: 113 ± 7.8%; activity at 10 µM [5]: 83.8 ± 7.9%; activity at 50 µM [5]: 71.3 ± 5.3%
